The values below come from patent US20250388565A1, “ESTROGEN RECEPTOR ALPHA DEGRADERS AND METHODS OF USE THEREOF” (Relay Therapeutics, Inc., priority 2022, published 2025).

The structures appear in SMILES notation. Bounds are passed on as bounds.

The target of the experiment is T1, ERα protein (HiBiT-tagged) in ESR1_HiBiT KI MCF7 cells (Homo sapiens, UniProt P03372).
T1 sequence (P03372 1-595): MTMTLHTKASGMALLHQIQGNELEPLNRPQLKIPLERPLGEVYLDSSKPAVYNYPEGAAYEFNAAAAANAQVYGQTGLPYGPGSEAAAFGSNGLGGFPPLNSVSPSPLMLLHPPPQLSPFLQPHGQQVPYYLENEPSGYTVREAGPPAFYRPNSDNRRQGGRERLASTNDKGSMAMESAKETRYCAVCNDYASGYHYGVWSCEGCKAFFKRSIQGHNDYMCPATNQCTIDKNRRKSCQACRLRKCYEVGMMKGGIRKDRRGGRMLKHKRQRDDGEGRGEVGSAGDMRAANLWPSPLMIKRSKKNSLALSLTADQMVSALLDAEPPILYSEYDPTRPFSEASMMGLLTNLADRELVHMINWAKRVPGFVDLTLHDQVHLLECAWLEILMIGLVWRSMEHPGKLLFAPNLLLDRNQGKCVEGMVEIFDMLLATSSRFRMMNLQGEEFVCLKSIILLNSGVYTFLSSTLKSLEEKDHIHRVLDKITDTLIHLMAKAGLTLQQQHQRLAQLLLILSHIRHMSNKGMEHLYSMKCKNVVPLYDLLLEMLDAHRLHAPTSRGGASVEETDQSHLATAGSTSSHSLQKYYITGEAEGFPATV
As to the kind of experiment: Nano Glo HiBiT Lytic Degradation Assay. The settings on record: 6 hours with compound, 14-point dose response 1:3, bell-shape curve fit, half-maximal effect of first Hill model, read-out: MCF7 ESR1 HiBiT - (DC50). In kind it is cell-based. In short, it runs like this:
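ESR1_HiBiT knock-in MCF7 cells were seeded 24 h before treatment, then exposed to compounds for 6 h at 37° C (14-point 1:3 curves, 10 mM top stock, 0.1% DMSO final, duplicates). HiBiT-ERα was read by lytic LgBiT luminescence, background-subtracted and normalized to DMSO. DC50 was taken from the half-maximal point of the first Hill component of a bell-shaped fit.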
Background: HiBiT is a short tag that completes a luciferase, so light tracks the accessible tagged protein.

For orientation: DC50 means the concentration at which degradation of the target reaches its halfway point.

With `C[C@H]1OC2(CCCCC2)[C@@H](c2ccc(N3CCC(CN4CCN(c5ccc6c(c5)CN([C@H]5CCC(=O)NC5=O)C6=O)CC4)CC3)cc2)c2ccc(O)cc21` [Compound I-268, (S)-3-(5-(4-((1-(4-((1′R,4′S)-7′-hydroxy-1′-methylspiro[cyclohexane-1,3′-isochroman]-4′-yl)phenyl)piperidin-4-yl)methyl)piperazin-1-yl)-1-oxoisoindolin-2-yl)piperidine-2,6-dione], the DC50 was not below 10000 nM.
As to `O=C1CC(N2Cc3cc(N4CCN(CC5CCN(c6ccc([C@@H]7c8ccc(O)cc8CC[C@@H]7c7ccccc7)cc6)CC5)CC4)ccc3C2=O)C(=O)N1` (stereo partly drawn) [Compound I-274, 3-(5-(4-((1-(4-((1R,2S)-6-hydroxy-2-phenyl-1,2,3,4-tetrahydronaphthalen-1-yl)phenyl)piperidin-4-yl)methyl)piperazin-1-yl)-1-oxoisoindolin-2-yl) pyrrolidine-2,5-dione], the DC50 worked out at 1 nM.
With `O=C1CCN(c2ccc(N3CCC4(CCN(CC5CCN(c6ccc([C@@H]7c8ccc(O)cc8CC[C@@H]7c7ccccc7)cc6)CC5)C4)CC3)cc2)C(=O)N1` [Compound I-291, 1-(4-(2-((1-(4-((1R,2S)-6-hydroxy-2-phenyl-1,2,3,4-tetrahydronaphthalen-1-yl)phenyl)piperidin-4-yl)methyl)-2,8-diazaspiro[4.5]decan-8-yl)phenyl)dihydropyrimidine-2,4 (1H,3H)-dione], the DC50 is 0.7 nM.
For the molecule `O=C1CCN(c2ccc(N3CCC4(CCN(CC5CCN(c6ccc([C@@H]7c8ccc(O)cc8C(F)(F)C[C@@H]7c7ccccc7)cc6)CC5)C4)CC3)cc2)C(=O)N1` [Compound I-292, 1-(4-(2-((1-(4-((1R,2S)-4,4-difluoro-6-hydroxy-2-phenyl-1,2,3,4-tetrahydronaphthalen-1-yl)phenyl)piperidin-4-yl)methyl)-2,8-diazaspiro[4.5]decan-8-yl)phenyl)dihydropyrimidine-2,4 (1H,3H)-dione], the DC50 stood at 0.73 nM.
With `Cc1cc(N2CCC3(CCN(CC4CCN(c5ccc([C@@H]6c7ccc(O)cc7CC[C@@H]6c6ccccc6)cc5)CC4)C3)CC2)ccc1N1CCC(=O)NC1=O` [Compound I-293], the 50% degradation concentration (DC50) was found to be 0.52 nM.
`Cn1nc(N2CCC(=O)NC2=O)c2ccc(N3CCN(CC4CCN(c5ccc([C@@H]6c7ccc(O)cc7CC[C@@H]6c6ccccc6)cc5)CC4)CC3)cc21` [Compound I-299, 1-(6-(4-((1-(4-((1R,2S)-6-hydroxy-2-phenyl-1,2,3,4-tetrahydronaphthalen-1-yl)phenyl)piperidin-4-yl)methyl)piperazin-1-yl)-1-methyl-1H-indazol-3-yl)dihydropyrimidine-2,4 (1H,3H)-dione]: the DC50 came out at 1 nM.
To `Cn1nc(N2CCC(=O)NC2=O)c2ccc(N3CCN(CC4CCN(c5ccc([C@@H]6c7ccc(O)cc7C(F)(F)C[C@@H]6c6ccccc6)cc5)CC4)CC3)cc21` [Compound I-300, 1-(6-(4-((1-(4-((1R,2S)-4,4-difluoro-6-hydroxy-2-phenyl-1,2,3,4-tetrahydronaphthalen-1-yl)phenyl)piperidin-4-yl)methyl)piperazin-1-yl)-1-methyl-1H-indazol-3-yl)dihydropyrimidine-2,4 (1H,3H)-dione] belongs 3300 nM; to `O=C1CCC(n2cc3cc(N4CCN(CC5CCN(c6ccc([C@@H]7c8ccc(O)cc8CC[C@@H]7c7ccccc7)cc6)CC5)CC4)ccc3n2)C(=O)N1` (stereo partly shown) [Compound I-301], 1 nM.
Consider `O=C1CCC(n2ncc3cc(N4CCN(CC5CCN(c6ccc([C@@H]7c8ccc(O)cc8CC[C@@H]7c7ccccc7)cc6)CC5)CC4)ccc32)C(=O)N1` (stereo partly shown) [Compound I-302], for which the DC50 was determined as 2 nM.
For `O=C1CCC(N2Cc3cc(N4CCN(CC5CCN(c6ccc([C@@H]7c8ccc(O)cc8C(F)(F)C[C@@H]7c7ccccc7)cc6)CC5)CC4)ccc3C2=O)C(=O)N1` (stereo partly drawn) [Compound I-305, 3-(5-(4-((1-(4-((1R,2S)-4,4-difluoro-6-hydroxy-2-phenyl-1,2,3,4-tetrahydronaphthalen-1-yl)phenyl)piperidin-4-yl)methyl)piperazin-1-yl)-1-oxoisoindolin-2-yl)piperidine-2,6-dione], the DC50 worked out at 0.32 nM.
In the case of `O=C1CC[C@@H](N2Cc3cc(N4CCN(CC5CCN(c6ccc([C@@H]7c8ccc(O)cc8C(F)(F)C[C@@H]7c7ccccc7)cc6)CC5)CC4)ccc3C2=O)C(=O)N1` [Compound I-306, (R)-3-(5-(4-((1-(4-((1R,2S)-4,4-difluoro-6-hydroxy-2-phenyl-1,2,3,4-tetrahydronaphthalen-1-yl)phenyl)piperidin-4-yl)methyl)piperazin-1-yl)-1-oxoisoindolin-2-yl)piperidine-2,6-dione] it was 0.6 nM.
On to `O=C1CC[C@H](N2Cc3cc(N4CCN(CC5CCN(c6ccc([C@H]7c8ccc(O)cc8C(F)(F)C[C@H]7c7ccccc7)c(F)c6)CC5)CC4)ccc3C2=O)C(=O)N1` [Compound I-307, (S)-3-(5-(4-((1-(4-((1R,2R)-4,4-difluoro-6-hydroxy-2-phenyl-1,2,3,4-tetrahydronaphthalen-1-yl)-3-fluorophenyl)piperidin-4-yl)methyl)piperazin-1-yl)-1-oxoisoindolin-2-yl)piperidine-2,6-dione], for which the DC50 came to 19 nM.
In the case of `O=C1CCC(c2ccc(N3CCC4(CCN(CC5CCN(c6ccc([C@@H]7c8ccc(O)cc8C(F)(F)C[C@@H]7c7ccccc7)cc6)CC5)C4)CC3)cc2)C(=O)N1` (stereo partly drawn) [Compound I-308, 3-(4-(2-((1-(4-((1R,2S)-4,4-difluoro-6-hydroxy-2-phenyl-1,2,3,4-tetrahydronaphthalen-1-yl)phenyl)piperidin-4-yl)methyl)-2,8-diazaspiro[4.5]decan-8-yl)phenyl)piperidine-2,6-dione], the DC50 stood at 0.65 nM.
In the case of `O=C1CCC(N2Cc3cc(N4CCN(CC5CCN(c6ccc([C@@H]7c8ccc(O)cc8C(F)(F)C[C@@H]7c7ccc(F)cc7)cc6)CC5)CC4)ccc3C2=O)C(=O)N1` (stereo partly drawn) [Compound I-309, 3-(5-(4-((1-(4-((1R,2S)-4,4-difluoro-2-(4-fluorophenyl)-6-hydroxy-1,2,3,4-tetrahydronaphthalen-1-yl)phenyl)piperidin-4-yl)methyl)piperazin-1-yl)-1-oxoisoindolin-2-yl)piperidine-2,6-dione] it was 0.39 nM; in that of `O=C1CC[C@@H](N2Cc3cc(N4CCN(CC5CCN(c6ccc([C@@H]7c8ccc(O)cc8C(F)(F)C[C@@H]7c7ccc(F)cc7)cc6)CC5)CC4)ccc3C2=O)C(=O)N1` [Compound I-310, (R)-3-(5-(4-((1-(4-((1R,2S)-4,4-difluoro-2-(4-fluorophenyl)-6-hydroxy-1,2,3,4-tetrahydronaphthalen-1-yl)phenyl)piperidin-4-yl)methyl)piperazin-1-yl)-1-oxoisoindolin-2-yl)piperidine-2,6-dione], 5.74 nM; in that of `O=C1CC[C@H](N2Cc3cc(N4CCN(CC5CCN(c6ccc([C@@H]7c8ccc(O)cc8C(F)(F)C[C@@H]7c7ccccc7F)cc6)CC5)CC4)ccc3C2=O)C(=O)N1` [Compound I-312, (S)-3-(5-(4-((1-(4-((1R,2S)-4,4-difluoro-2-(2-fluorophenyl)-6-hydroxy-1,2,3,4-tetrahydronaphthalen-1-yl)phenyl)piperidin-4-yl)methyl)piperazin-1-yl)-1-oxoisoindolin-2-yl)piperidine-2,6-dione], 0.37 nM.
Consider `O=C1CC[C@H](N2Cc3cc(N4CCN(CC5CCN(c6ccc([C@H]7c8ccc(O)cc8C(F)(F)C[C@H]7c7ccccc7F)cc6)CC5)CC4)ccc3C2=O)C(=O)N1` [Compound I-313, (S)-3-(5-(4-((1-(4-((1S,2R)-4,4-difluoro-2-(2-fluorophenyl)-6-hydroxy-1,2,3,4-tetrahydronaphthalen-1-yl)phenyl)piperidin-4-yl)methyl)piperazin-1-yl)-1-oxoisoindolin-2-yl)piperidine-2,6-dione], for which the DC50 was determined as 15 nM.
In the case of `O=C1CC[C@H](N2Cc3cc(N4CCN(CC5CCN(c6ccc([C@@H]7c8ccc(O)cc8C(F)(F)C[C@@H]7c7ccc(F)c(F)c7)cc6)CC5)CC4)ccc3C2=O)C(=O)N1` [Compound I-314, (S)-3-(5-(4-((1-(4-((1R,2S)-2-(3,4-difluorophenyl)-4,4-difluoro-6-hydroxy-1,2,3,4-tetrahydronaphthalen-1-yl)phenyl)piperidin-4-yl)methyl)piperazin-1-yl)-1-oxoisoindolin-2-yl)piperidine-2,6-dione] it was 0.33 nM; in that of `O=C1CC[C@H](N2Cc3cc(N4CCN(CC5CCN(c6ccc([C@H]7c8ccc(O)cc8C(F)(F)C[C@H]7c7ccc(F)c(F)c7)cc6)CC5)CC4)ccc3C2=O)C(=O)N1` [Compound I-315, (S)-3-(5-(4-((1-(4-((1S,2R)-2-(3,4-difluorophenyl)-4,4-difluoro-6-hydroxy-1,2,3,4-tetrahydronaphthalen-1-yl)phenyl)piperidin-4-yl)methyl)piperazin-1-yl)-1-oxoisoindolin-2-yl)piperidine-2,6-dione], not below 10000 nM.
